The values that follow come from patent US12606529B2, “Sulfur and amide tropolone inhibitors of nucleotidyl transferases and uses therefor” (Saint Louis University, priority 2019, dated 2026).

SMILES strings stand for the structures. Converted amounts (≈) assume the structure as drawn.

Data set [1] has as its system C. neoformans var. grubii, KN99. Description: C. neoformans growth inhibition assay (limiting dilution). Format: cell-based, Cryptococcus neoformans. As to conditions: Cryptococcus neoformans, 48 h, Table 2 amides; 48 h, 35° C., tested 0.19 to 50 μM; read-out: C. neoformans MIC80. The procedure: Cell types used for C. neoformans studies. All inhibition assays were performed with C. neoformans var. grubii, KN99 (serotype A, MAT). Two clinical strains of C. neoformans var. grubii, serotype A, were provided by Tamara Doering and Andre Spec. […] Cells were diluted to OD650 0.001 in YNB-02 02 (0.67% yeast nitrogen base, 0.2% dextrose, pH 7.0 with 50 mM MOPs)+1% DMSO prior to addition to the plates for the inhibition assays.
C. neoformans growth inhibition assays. Compounds were tested in a limiting dilution assay with a starting optical density (at 650 nm) of 0.001 in YNB-02 plus 1% DMSO. Cells plus compound were incubated in 96-well clear round bottom plates covered with a Breath-easy® membrane without shaking for 48 hours at 35° C. Before measuring cell density, plates were shaken on a microtiter plate shaker at 900 rpm for 3 minutes to resuspend cells and optical density was measured at 650 nm. […] Each assay was done in triplicate and all values are the average of two or more independent assays. The data are presented as the average cell density as a percent of DMSO-only treated cells. MICs are reported as the minimal concentration needed to inhibit 80% of C. neoformans growth relative to vehicle-treated controls.

The target in data set [2] is T1, human RNaseH1 (Homo sapiens, UniProt O60930).
T1 sequence (O60930 1-286): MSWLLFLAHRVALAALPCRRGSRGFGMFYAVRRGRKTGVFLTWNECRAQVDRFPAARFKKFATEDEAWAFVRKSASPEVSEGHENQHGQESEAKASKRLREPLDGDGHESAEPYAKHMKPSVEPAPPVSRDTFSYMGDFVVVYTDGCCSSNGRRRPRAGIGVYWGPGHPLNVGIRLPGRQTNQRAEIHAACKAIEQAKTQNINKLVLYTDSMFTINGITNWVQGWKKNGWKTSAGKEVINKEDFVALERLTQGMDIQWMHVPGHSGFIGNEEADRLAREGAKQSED
The experiment in a line: Biochemical inhibition of human RNaseH1 activity. As to conditions: Table 2 amides; read-out: HuRH1 IC50. The procedure:
Biochemical inhibition of human RNaseH1 activity. Quantitative inhibition of the human RNaseH1 in the biochemical assays was assessed using a molecular beacon assay as described previously (Edwards et al., 2017). Recombinant human RNaseH 1 (0.3 μg) was incubated with 100 nM RNA:DNA substrate, 50 mM HEPES pH 8.0, 100 mM NaCl, 2 mM Tris(2-carboxyethyl)phosphine hydrochloride (TCEP), 0.05% Tween20, 5 units of RNaseOut, test compounds (0 to 500 μM), and 5% DMSO in a 100 μL reaction volume. The substrate was formed by annealing a complementary RNA oligonucleotide to a hairpin DNA oligonucleotide to hold the hairpin DNA oligonucleotide in an open conformation. The DNA oligonucleotide has a 5′ fluorescein reporter and a 3′ black hole quencher. When the RNA is degraded from the substrate the DNA oligonucleotide closes to form a hairpin structure, decreasing in signal intensity. Reactions were initiated with 5 mM MgCl2 and fluorescence was read using a Synergy HTS multi-mode plate reader at 37° C. Alternatively, the HBV RNaseH version used was MBP-HRHgtCΔ5, a genotype C isolate which lacks the C-terminal 35 amino acids of the HBV RNaseH domain that are predicted to be unstructured. Quantitative inhibition of the human RNaseH1 in biochemical assays was assessed using a FRET-based RNaseH assay under conditions previously reported for an RNaseH molecular beacon assay (Edwards et al., 2017). […] Cleavage of the RNA strand released the fluorescein from quenching, increasing fluorescence. Reactions were monitored for 90 min at 37° C. in a plate reader and initial reaction rates were calculated. Reactions contained escalating concentrations of the compounds.

Data set [3] can be described thus: in vitro. Particulars: human, CC50 (μM), Table 2 amides; HepDES19 cells, MTT.
The subject of data set [4] is HSV-1. The experiment in a line: Anti-HSV-1 replication assay (Vero cells, plaque titer). Format: cell-based, herpes simplex virus 1. Particulars: Human alphaherpesvirus 1, Vero, Table 2 amides; for log reduction at 1 µM: compound at 1 μM, read-out: HSV-1 suppression 1 μM; for log reduction at 1 µM / log reduction at 5 µM: values separated by / are repeats; for log reduction at 5 µM: compound at 5 μM, read-out: HSV-1 suppression 5 μM.

By MIC80 is commonly meant an inhibitory concentration at the 80% level, which refers to growth in some studies and to a panel of isolates in others. The term IC50 denotes the point on the concentration scale where inhibition reaches its midpoint. A word on the CC50: it is the concentration at which the toxic effect on the cells reaches its halfway point.

Turning to `Cc1cc(O)c(=O)c(O)cc1C(=O)NCC1CCN(C(=O)OC(C)(C)C)CC1` [compound 805], the MIC80 in data set [1] is 9 µM (≈ 3.53 µg/mL). The IC50 in data set [2] turned out to be 77 ± 30.8 µM. In data set [3], this molecule displayed a cytotoxic concentration (CC50) at 24 h of 19.5 ± 10.8 µM.
Taken in the same sequence, the figures for `COc1ccc(CNC(=O)c2cc(O)c(=O)c(O)cc2C)cc1` [compound 806] were 4.6 µM (≈ 1.45 µg/mL), 61.4 ± 15.9 µM and 15.9 ± 6.9 µM.
As for `Cc1cc(O)c(=O)c(O)cc1C(=O)NCc1ccc(Oc2ccccc2)cc1` [compound 807], the MIC80 in data set [1] was found to be 4.5 µM (≈ 1.7 µg/mL). For the same molecule, in data set [4] (compound at 0.33 μM, read-out: HSV-1 suppression 0.33 μM), the log reduction at 0.33 µM was 0.0714. Further, in data set [4], the log reduction at 1 µM is -0.11 and the log reduction at 5 µM is 4.54. In data set [2], the half-inhibitory concentration (IC50) came to 799 ± 403 µM. In data set [3], this molecule returned a CC50 at 24 h of 6 ± 6.5 µM.
On to `Cc1cc(O)c(=O)c(O)cc1C(=O)NCC1COC(C)(C)O1` (stereo not drawn) [compound 808], for which the MIC80 in data set [1] was found to be 9 µM (≈ 2.78 µg/mL). Besides, the IC50 in data set [2] amounted to 71.9 ± 12 µM. The molecule further gave a CC50 at 24 h in data set [3] of 14.9 ± 8.6 µM.
As for `Cc1ccc(CNC(=O)c2cc(O)c(=O)c(O)cc2C)c(C)c1` [compound 809], in data set [1], the MIC80 came out at 3.3 µM (≈ 1.03 µg/mL). Further, in data set [4], the log reduction at 1 µM amounted to 0.0278 and the log reduction at 5 µM was determined as 4.69. Moreover, the IC50 in data set [2] amounted to 19.6 ± 20 µM. The half-maximal cytotoxic concentration (CC50) at 24 h in data set [3] came out at 5.8 ± 6.5 µM.
As to `Cc1cc(O)c(=O)c(O)cc1C(=O)NCC1CCCCN1C(=O)OC(C)(C)C` (stereo not drawn) [compound 810], the MIC80 in data set [1] stood at 4.5 µM (≈ 1.77 µg/mL). In addition, the half-maximal inhibitory concentration (IC50) in data set [2] amounted to 41.5 ± 7.2 µM. In data set [3], this molecule showed a 50% cytotoxic concentration (CC50) at 24 h of 10.9 ± 11.2 µM.
With `Cc1cc(O)c(=O)c(O)cc1C(=O)Nc1ccccc1Cc1ccccc1` [compound 834], the MIC80 in data set [1] came to 9 µM (≈ 3.25 µg/mL). Moreover, the log reduction at 5 µM in data set [4] came out at 1.8. For the same molecule, the 50% inhibitory concentration (IC50) in data set [2] came to 37.2 ± 17.2 µM. This molecule also returned a CC50 at 24 h in data set [3] of 16.4 ± 11.2 µM.
On to `Cc1cc(O)c(=O)c(O)cc1C(=O)Nc1ccccc1OCc1ccccc1` [compound 835], for which the MIC80 in data set [1] came to 4.5 µM (≈ 1.7 µg/mL). Also, in data set [4], the log reduction at 5 µM was 5.23. Further, the IC50 in data set [2] is 725 ± 427 µM. The molecule also gave a CC50 at 24 h in data set [3] of 10.3 ± 5.2 µM.
`Cc1cc(O)c(=O)c(O)cc1C(=O)N1CCN(S(=O)(=O)c2ccsc2)CC1` [compound 917]: the MIC80 in data set [1] turned out to be 50 µM (≈ 20.5 µg/mL). The concentration for half-maximal inhibition (IC50) in data set [2] turned out to be 30.7 ± 15.8 µM. The CC50 at 24 h in data set [3] worked out at 8.9 ± 4.1 µM.
For `Cc1cc(O)c(=O)c(O)cc1C(=O)N1CCN(c2ccc(C(F)(F)F)cc2)CC1` [compound 919], in data set [1], the MIC80 came to 2.5 µM (≈ 1.02 µg/mL). In data set [3], this molecule returned a CC50 at 24 h of 5.5 ± 1.9 µM.
Turning to `Cc1cc(O)c(=O)c(O)cc1C(=O)N1CCN(C(=O)c2ccc([N+](=O)[O-])c3nonc23)CC1` [compound 920], in data set [1], the MIC80 amounted to 50 µM (≈ 22.8 µg/mL). Further, in data set [2], the 50% inhibitory concentration (IC50) was found to be 40.2 ± 39.7 µM. This molecule yielded a CC50 at 24 h in data set [3] of 19.3 ± 14.6 µM.
Turning to `Cc1cc(O)c(=O)c(O)cc1C(=O)NCC1CCOC1` (stereo not drawn) [compound 1018], the MIC80 in data set [1] stood at 50 µM (≈ 14 µg/mL). Also, in data set [2], the IC50 is 129 ± 123 µM. In data set [3], this molecule had a CC50 at 24 h of 41.2 ± 33.4 µM.
`Cc1cc(O)c(=O)c(O)cc1C(=O)NCc1ccc(N2CCCC2)cc1` [compound 1019]: the MIC80 in data set [1] turned out to be 4.5 µM (≈ 1.59 µg/mL). Also, the IC50 in data set [2] amounted to 383 ± 471 µM. The half-maximal cytotoxic concentration (CC50) at 24 h in data set [3] turned out to be 10.7 ± 6 µM.
For `Cc1cc(O)c(=O)c(O)cc1C(=O)N1CCN(C(=O)N(c2ccccc2)c2ccccc2)CC1` [compound 1020], the MIC80 in data set [1] was determined as 8 µM (≈ 3.68 µg/mL). For the same molecule, the 50% inhibitory concentration (IC50) in data set [2] amounted to 12.9 ± 7.3 µM. In data set [3], this molecule registered a CC50 at 24 h of 7.8 ± 3.7 µM.
Regarding `CCCCNC(=O)c1cc(O)c(=O)c(O)cc1C` [compound 1039], the MIC80 in data set [1] was found to be 12 µM (≈ 3.02 µg/mL). In data set [2], the IC50 was determined as 219 ± 87.6 µM. The half-maximal cytotoxic concentration (CC50) at 24 h in data set [3] is 8.7 ± 2.8 µM.
